Assay results as given in patent publication US7273856B2, “Linear basic compounds having NK-2 antagonist activity and formulations thereof” (Menarini Ricerche S.P.A., priority 2001, dated 2007).
“And” between values parts separate entries of the source, which are not always exact repeats. Equal values may be shown once. Where a name gives a salt, the structure may show the parent alone.

biological target: T1, human NK-2 receptor (Homo sapiens, UniProt P21452); experiment: binding test, affinity for the human NK-2 receptor, competition with [125I]NKA on transfected CHO cell membranes; conditions: CHO cell membranes transfected with NK-2 receptor of human ileum; [125I]NKA 100 pM; 30 min, 20° C.
T1 construct: expressed in transfected cells; host or cells: CHO (Chinese hamster ovary) cells, membranes
T1 sequence (P21452 1-398): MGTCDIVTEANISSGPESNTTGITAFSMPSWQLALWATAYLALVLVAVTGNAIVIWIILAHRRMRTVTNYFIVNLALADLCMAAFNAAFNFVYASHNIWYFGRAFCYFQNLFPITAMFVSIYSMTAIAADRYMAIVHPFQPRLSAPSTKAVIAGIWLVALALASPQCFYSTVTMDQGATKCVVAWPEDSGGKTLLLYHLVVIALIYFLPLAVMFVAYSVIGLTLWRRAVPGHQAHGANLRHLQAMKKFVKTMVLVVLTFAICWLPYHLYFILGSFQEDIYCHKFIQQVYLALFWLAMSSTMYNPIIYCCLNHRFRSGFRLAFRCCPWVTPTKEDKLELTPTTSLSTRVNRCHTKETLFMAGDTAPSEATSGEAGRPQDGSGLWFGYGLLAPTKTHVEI
Experimental: The evaluation of the antagonist activity on NK-2 receptors has been assessed by binding and functional tests according to that already described in literature in relation to NK-2 antagonists.
The test substances have been tested within a concentration range from 0.01 nM to 10 nM. At the end of the incubation time (30 min, 20° C.) the samples have been filtered and radioactivity has been determined using a gamma-counter.

Point of comparison: `CN1CCCN(CCCNC(=O)[C@@H](Cc2ccccc2)NC(=O)C2(NC(=O)c3cc4ccccc4s3)CCCC2)CC1` [Example 52, Benzo[b]thiophen-2-carboxylic acid, (1-{1(R)-[3-(4-methyl-[1,4]diazepan-1-yl)-propylcarbamoyl]-2-phenylethylcarbamoyl}-cyclopentyl)-amide TFA salt], Ki 2 nM. Against it:
- N#CCN1CCN(C(=O)CCNC(=O)[C@@H](Cc2ccccc2)NC(=O)C2(NC(=O)c3cc4ccccc4s3)CCCC2)CC1 [Example 65, Benzo[b]thiophene-2-carboxylic acid (1-{1(R)-[3-(4-cyanomethyl-piperazin-1-yl)-3-oxo-propylcarbamoyl]-2-phenyl-ethylcarbamoyl}-cyclopentyl)-amide] — 2-fold lower, 1 nM
- O=C(NC1(C(=O)N[C@H](Cc2ccccc2)C(=O)NCC2CCN(CC3CCOCC3)CC2)CCCC1)c1cc2cc(I)ccc2o1 [Example 127, 5-Iodo-benzofuran-2-carboxylic acid [1-(2-phenyl-1R-{[1-(tetrahydro-pyran-4-ylmethyl)-piperidin-4-ylmethyl]-carbamoyl}-ethylcarbamoyl)-cyclopentyl]-amide] — 25-fold lower, 0.0794 nM
- O=C(C=Cc1ccc(Br)c(Br)c1)NC1(C(=O)N[C@H](Cc2ccccc2)C(=O)NCCCN2CCOCC2)CCCC1 [Example 50, 1-[3-(3,4-dibromophenyl)-acryloylamino]-cyclopentanecarboxylic acid [1-(3-morpholin-4-yl-propylcarbamoyl)-2-(R)-phenyl-ethyl]-amide] — 5-fold lower, 0.398 nM
- NC1(C(=O)N2CCC(CNC(=O)[C@@H](Cc3ccccc3)NC(=O)C3(NC(=O)c4cc5ccccc5s4)CCCC3)CC2)CCCCC1 [Example 96, Benzo[b]thiophene-2-carboxylic acid [1-(1(R)-{[1-(1-aminocyclohexanecarbonyl)-piperidin-4-ylmethyl]-carbamoyl}-2-phenyl-ethylcarbamoyl)-cyclopentyl]-amide TFA salt] — 20-fold lower, 0.1 nM
- O=C(NC1(C(=O)N[C@H](Cc2ccccc2)C(=O)NCC2CCN(CC3CCOCC3)CC2)CCCC1)c1cc2ccc(Br)cc2o1 [Example 119, 6-Bromo-benzofuran-2-carboxylic acid [1-(2-phenyl-1R-{[1-(tetrahydro-pyran-4-ylmethyl)-piperidin-4-ylmethyl]-carbamoyl}-ethylcarbamoyl)cyclopentyl]-amide] — 8-fold lower, 0.251 nM
- O=C(NC1(C(=O)N[C@H](Cc2ccccc2)C(=O)NCC2CCN(CC3CCOCC3)CC2)CCCC1)c1cc2cc(Br)ccc2o1 [Example 123, 5-Bromo-benzofuran-2-carboxylic acid [1-(2-phenyl-1R-{[1-(tetrahydro-pyran-4-ylmethyl)-piperidin-4-ylmethyl]-carbamoyl}-ethylcarbamoyl)cyclopentyl]-amide] — 20-fold lower, 0.1 nM
- Nc1ccc2cc(C(=O)NC3(C(=O)N[C@H](Cc4ccccc4)C(=O)NCCCN4CCOCC4)CCCC3)sc2c1 [Example 115, 6-Amino-benzo[b]thiophene-2-carboxylic acid {1-[1R-(3-morpholin-4-yl-propylcarbamoyl)-2-phenyl-ethylcarbamoyl]-cyclopentyl]-amide] — 1.6-fold higher, 3.16 nM
- O=C(NC1(C(=O)N[C@H](Cc2ccccc2)C(=O)NCCC(=O)N2CCN(c3ccccn3)CC2)CCCC1)c1ccc2cc(Br)ccc2c1 [Example 58, 6-Bromo-naphthalene-2-carboxylic acid (1-{1(R)-[3-oxo-3-(4-pyridin-2-yl-piperazin-1-yl)propylcarbamoyl]-2-phenyl-ethylcarbamoyl}-cyclopentyl)-amide TFA salt] — 1.6-fold higher, 3.16 nM
- COc1ccc2cc(C(=O)NC3(C(=O)N[C@H](Cc4ccccc4)C(=O)NCC4CCN(CC5CCOCC5)CC4)CCCC3)ccc2c1 [Example 118, 6-Methoxy-naphthalene-2-carboxylic acid [1-(2-phenyl-1R-{[1-(tetrahydro-pyran-4-ylmethyl)-piperidin-4-ylmethyl]-carbamoyl}-ethylcarbamoyl)-cyclopentyl]-amide] — 6.3-fold lower, 0.316 nM
- O=C(NC1(C(=O)N[C@H](Cc2ccccc2)C(=O)NCC2CCN(C3CCSCC3)CC2)CCCC1)c1cc2cc(Cl)ccc2o1 [Example 93, 5-Chloro-benzofuran-2-carboxylic acid [1-(2-phenyl-1(R)-{[1-(tetrahydro-thiopyran-4-yl)-piperidin-4-ylmethyl]-carbamoyl}-ethylcarbamoyl)cyclopentyl]-amide] — 25-fold lower, 0.0794 nM
- O=C(NC1(C(=O)N[C@H](Cc2ccccc2)C(=O)NCC2CCN(CC3CCOCC3)CC2)CCCC1)c1cc2ccc(I)cc2s1 [Example 129, 6-Iodo-benzo[b]thiophene-2-carboxylic acid [1-(2-phenyl-1R-{[1-(tetrahydro-pyran-4-ylmethyl)-piperidin-4-ylmethyl]-carbamoyl}-ethylcarbamoyl)-cyclopentyl]-amide] — 40-fold lower, 0.0501 nM
- NC1CCCCC1NC(=O)C1CCC(NC(=O)C(Cc2ccccc2)NC(=O)C2(NC(=O)c3cc4ccccc4s3)CCCC2)C1 (single isomer, unassigned) [Example 2] — 13-fold lower, 0.158 nM
- COc1ccc2oc(C(=O)NC3(C(=O)N[C@H](Cc4ccccc4)C(=O)NCC4CCN(CC5CCOCC5)CC4)CCCC3)cc2c1 [Example 146, 5-Methoxy-benzofuran-2-carboxylic acid [1-(2-phenyl-1-{[1R-(tetrahydro-pyran-4-ylmethyl)-piperidin-4-ylmethyl]-carbamoyl}-ethylcarbamoyl)-cyclopentyl]-amide] — 5-fold lower, 0.398 nM
- O=C(NC1(C(=O)N[C@H](Cc2ccccc2)C(=O)NCCC(=O)N2CCN(CC3COCOC3)CC2)CCCC1)c1cc2ccccc2s1 [Example 62, Benzo[b]thiophene-2-carboxylic acid (1-{1(R)-[3-(4-[1,3]dioxan-5-ylmethyl-piperazin-1-yl)3-oxo-propylcarbamoyl]-2-phenyl-ethylcarbamoyl}-cyclopentyl)-amide TFA salt] — the same, 2 nM
- O=C(NC1(C(=O)N[C@H](Cc2ccccc2)C(=O)NCCC2CCN(C(=O)[C@H]3CCCN3)CC2)CCCC1)c1ccc2cc(Br)ccc2c1 [Example 99, 6-Bromo-naphthalene-2-carboxylic acid [1-(2-phenyl-1(R)-{2-[1-(pyrrolidine-2(R)-carbonyl)-piperidin-4-yl]-ethylcarbamoyl}-ethylcarbamoyl)-cyclopentyl]-amide] — 6.3-fold lower, 0.316 nM
- NC1(C(=O)N2CCC(CNC(=O)[C@@H](Cc3ccccc3)NC(=O)C3(NC(=O)c4ccc5cc(Br)ccc5c4)CCCC3)CC2)CCCCC1 [Example 97, 6-Bromo-naphthalene-2-carboxylic acid [1-(1(R)-{[1-(1-amino-cyclohexanecarbonyl)-piperidin-4-ylmethyl]-carbamoyl}-2-phenyl-ethylcarbamoyl)-cyclopentyl]-amide] — 100-fold lower, 0.02 nM
- Cc1ccc(C=CC(=O)NC2(C(=O)NC(Cc3ccccc3)C(=O)NC3CCC(C(=O)NC4CCCCC4N(C)C)C3)CCCC2)cc1 [Example 10, N^γ{N^α[N^α(4-methyl-cinnamoyl)-1-aminocyclopentan-1-carboxy]-D-phenylalanyl}-(1R,3S)-3-aminocyclopentane-1-carboxylic-acid-N-((1S,2S)-2-dimethylaminocyclohexyl)amide hydrochloride salt] — 4-fold lower, 0.501 nM
- O=C(NC1(C(=O)N[C@H](Cc2ccccc2)C(=O)NCC2CCN(CC3COCOC3)CC2)CCCC1)c1cc2ccccc2s1 [Example 88, Benzo[b]thiophene-2-carboxylic acid (1-{1(R)-[(1-[1,3]dioxan-5-ylmethyl-piperidin-4-ylmethyl)carbamoyl]-2-phenyl-ethylcarbamoyl}-cyclopentyl)-amide TFA salt] — 2.5-fold lower, 0.794 nM

Point of comparison: `CC[C@@](C)(NC(=O)c1cc2ccccc2s1)C(=O)N[C@H](Cc1ccccc1)C(=O)N[C@H]1CC[C@@H](C(=O)N[C@H]2CCCC[C@@H]2N)C1.O=C(O)C(F)(F)F` [Example 14, N^γ{N^α[N^α(benzo[b]thiophen-2-ylcarbonyl)-(R)-α-methyl-α-ethylglycyl]-D-phenylalanyl}-(1R,3S)3-amino cyclopentane-1-carboxylic-acid-N-((1S,2S)-2-aminocyclohexyl) amide trifluoroacetate salt], pKi 9.9. Against it:
- O=C(NC1(C(=O)N[C@H](Cc2ccccc2)C(=O)NCCCN2CCOCC2)CCCCC1)c1cc2ccccc2s1 [Example 20, N^α[N^α(benzo[b]thiophen-2-yl-carbonyl)-1-aminocyclohexan-1-carboxy]-D-phenylalanine-N-[3(morpholin-4-yl)propyl]amide] — lower, 9.1
- Cc1ccc(C=CC(=O)NC2(C(=O)N[C@H](Cc3ccccc3)C(=O)N[C@H]3CC[C@@H](C(=O)N[C@H]4CCCC[C@@H]4N)C3)CCCC2)cc1.O=C(O)C(F)(F)F [Example 5, N^γ{N^α[N^α[4-(methyl)cynnamoyl]-1-aminocyclopentan-1-carboxy]-D-phenylalanyl}-(1R,3S)-3-aminocyclopentane-1-carboxylic-acid-N-((1S,2S)-2-aminocyclohexyl)amide trifluoroacetate salt] — lower, 9.7

`O=C(NC1(C(=O)N[C@H](Cc2ccccc2)C(=O)NCCCN2CCOCC2)CCCC1)c1cc2cc(Br)ccc2o1` [Example 104, 5-Bromo-benzofuran-2-carboxylic acid {1-[1R-(3-morpholin-4-yl-propylcarbamoyl)2-phenyl-ethylcarbamoyl]-cyclopentyl}-amide] was tested, and the Ki was 0.501 nM and 0.316 nM.
